In patent US9359358B2, “Cyclohexyl azetidine derivatives as JAK inhibitors” (Incyte Holdings Corporation, priority 2011, dated 2016):
Where a name gives a salt, the structure may show the parent alone.

Experiments:
human JAK1 = target: T1, human JAK1 (Homo sapiens, UniProt P23458); assay: In Vitro JAK Kinase Assay (HTRF, phosphorylation of a biotinylated peptide), JAK1; type: biochemical; details: catalytic domain a.a. 837-1142, assay of Example A
T1 construct: human JAK1 (a.a. 837-1142); His tag (N); made in house; host or cells: insect cells (baculovirus)
Method: (§1) The catalytic activity of JAK1, JAK2 or JAK3 was assayed by measuring the phosphorylation of a biotinylated peptide. The phosphorylated peptide was detected by homogenous time resolved fluorescence (HTRF). […] Reactions were carried out at room temperature for 1 hour and then stopped with 20 μL 45 mM EDTA, 300 nM SA-APC, 6 nM Eu-Py20 in assay buffer (Perkin Elmer, Boston, Mass.). Binding to the Europium labeled antibody took place for 40 minutes and HTRF signal was measured on a Fusion plate reader (Perkin Elmer, Boston, Mass.).

human JAK2 = target: T2, human JAK2 (Homo sapiens, UniProt O60674); assay: In Vitro JAK Kinase Assay (HTRF, phosphorylation of a biotinylated peptide), JAK2; type: biochemical; details: assay of Example A
T2 construct: JAK2 (a.a. 828-1132); His tag (N); made in house; host or cells: insect cells (baculovirus)
Method: as §1

T1 sequence (P23458 849-1154): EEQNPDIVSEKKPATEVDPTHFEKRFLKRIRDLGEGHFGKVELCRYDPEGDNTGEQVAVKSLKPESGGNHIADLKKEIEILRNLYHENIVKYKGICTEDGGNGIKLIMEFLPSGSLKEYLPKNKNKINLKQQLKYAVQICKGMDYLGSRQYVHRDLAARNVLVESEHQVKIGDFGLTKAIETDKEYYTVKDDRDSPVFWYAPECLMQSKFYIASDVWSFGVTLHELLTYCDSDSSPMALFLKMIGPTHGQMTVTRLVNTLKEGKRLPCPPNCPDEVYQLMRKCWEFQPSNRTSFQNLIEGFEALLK
T2 sequence (O60674 828-1132): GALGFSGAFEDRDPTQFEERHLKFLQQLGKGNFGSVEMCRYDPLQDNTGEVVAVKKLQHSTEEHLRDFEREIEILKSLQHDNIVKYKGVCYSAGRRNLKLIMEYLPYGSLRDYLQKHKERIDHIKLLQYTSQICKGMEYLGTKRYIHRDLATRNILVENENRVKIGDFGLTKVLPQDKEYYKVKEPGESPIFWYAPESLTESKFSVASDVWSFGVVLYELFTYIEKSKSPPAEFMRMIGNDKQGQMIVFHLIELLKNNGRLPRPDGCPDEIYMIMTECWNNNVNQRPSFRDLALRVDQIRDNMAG

Compound | IC50 (human JAK1; Table 4) [nM] | JAK2/JAK1 IC50 ratio (human JAK2; Table 4) | IC50 (human JAK1; Table 5) [nM] | JAK2/JAK1 IC50 ratio (human JAK2; Table 5)
2-(1-(cis-4-((6-(((2-(1H-imidazol-4- yl)ethyl)amino)methyl)-2- (trifluoromethyl)pyrimidin-4- yl)oxy)cyclohexyl)-3-(4-(7H-pyrrolo[2,3- d]pyrimidin-4-yl)-1H-pyrazol-1- yl)azetidin-3-yl)acetonitrile tris(trifluoroacetate) (salt) [Example 39] | < 10 | ≧10 |  | 
CCC(C)NC(=O)c1cc(O[C@H]2CC[C@@H](N3CC(CC#N)(n4cc(-c5ncnc6[nH]ccc56)cn4)C3)CC2)nc(C(F)(F)F)c1.O=C(O)C(F)(F)F.O=C(O)C(F)(F)F (relative stereo) [Example 88, N-(sec-butyl)-2-[(cis-4-{3-(cyanomethyl)-3-[4-(7H-pyrrolo[2,3-d]pyrimidin-4-yl)-1H-pyrazol-1-yl]azetidin-1-yl}cyclohexyl)oxy]-6-(trifluoromethyl)isonicotinamide bis(trifluoroacetate)] |  |  | < 10 | ≧10
CC(O)(CO)c1cc(OC2CCC(N3CC(CC#N)(n4cc(-c5ncnc6[nH]ccc56)cn4)C3)CC2)nc(C(F)(F)F)n1 (single isomer, unassigned) [Example 57, {1-(cis-4-{[6-(1,2-dihydroxy-1-methylethyl)-2-(trifluoromethyl)pyrimidin-4-yl]oxy}cyclohexyl)-3-[4-(7H-pyrrolo[2,3-d]pyrimidin-4-yl)-1H-pyrazol-1-yl]azetidin-3-yl}acetonitrile tris(trifluoroacetate) (salt)] | < 10 | ≧10 |  | 
CC(O)(CO)c1cc(OC2CCC(N3CC(CC#N)(n4cc(-c5ncnc6[nH]ccc56)cn4)C3)CC2)nc(C(F)(F)F)n1 (single isomer, unassigned) [Example 57a, {1-(cis-4-{[6-(1,2-dihydroxy-1-methylethyl)-2-(trifluoromethyl)pyrimidin-4-yl]oxy}cyclohexyl)-3-[4-(7H-pyrrolo[2,3-d]pyrimidin-4-yl)-1H-pyrazol-1-yl]azetidin-3-yl}acetonitrile tris(trifluoroacetate) (salt)] | < 10 | ≧10 |  | 
CC(O)c1cc(OC2CCC(N3CC(CC#N)(n4cc(-c5ncnc6[nH]ccc56)cn4)C3)CC2)nc(C(F)(F)F)n1 (single isomer, unassigned) [Example 58, {1-(cis-4-{[6-(1-hydroxyethyl)-2-(trifluoromethyl)pyrimidin-4-yl]oxy}cyclohexyl)-3-[4-(7H-pyrrolo[2,3-d]pyrimidin-4-yl)-1H-pyrazol-1-yl]azetidin-3-yl}acetonitrile tris(trifluoroacetate) (salt)] | < 10 | ≧10 |  | 
CC(O)c1cc(OC2CCC(N3CC(CC#N)(n4cc(-c5ncnc6[nH]ccc56)cn4)C3)CC2)nc(C(F)(F)F)n1 (single isomer, unassigned) [Example 58a, {1-(cis-4-{[6-(1-hydroxyethyl)-2-(trifluoromethyl)pyrimidin-4-yl]oxy}cyclohexyl)-3-[4-(7H-pyrrolo[2,3-d]pyrimidin-4-yl)-1H-pyrazol-1-yl]azetidin-3-yl}acetonitrile tris(trifluoroacetate) (salt)] | < 10 | ≧10 |  | 
CC(CO)c1cc(OC2CCC(N3CC(CC#N)(n4cc(-c5ncnc6[nH]ccc56)cn4)C3)CC2)nc(C(F)(F)F)n1 (single isomer, unassigned) [Example 59, {1-(cis-4-{[6-(2-hydroxy-1-methylethyl)-2-(trifluoromethyl)pyrimidin-4-yl]oxy}cyclohexyl)-3-[4-(7H-pyrrolo[2,3-d]pyrimidin-4-yl)-1H-pyrazol-1-yl]azetidin-3-yl}acetonitrile bis(trifluoroacetate) (salt)] | < 10 | ≧10 |  | 
CC(CO)c1cc(OC2CCC(N3CC(CC#N)(n4cc(-c5ncnc6[nH]ccc56)cn4)C3)CC2)nc(C(F)(F)F)n1 (single isomer, unassigned) [Example 59a, {1-(cis-4-{[6-(2-hydroxy-1-methylethyl)-2-(trifluoromethyl)pyrimidin-4-yl]oxy}cyclohexyl)-3-[4-(7H-pyrrolo[2,3-d]pyrimidin-4-yl)-1H-pyrazol-1-yl]azetidin-3-yl}acetonitrile bis(trifluoroacetate) (salt)] | < 10 | ≧10 |  | 
N#CCC1(n2cc(-c3ncnc4[nH]ccc34)cn2)CN([C@H]2CC[C@@H](Oc3cc(CN4CCC[C@@H]4CO)cc(C(F)(F)F)n3)CC2)C1.O=C(O)C(F)(F)F.O=C(O)C(F)(F)F.O=C(O)C(F)(F)F (stereo in doubt) [Example 93, {1-(cis-4-{[4-{[(2R)-2-(hydroxymethyl)pyrrolidin-1-yl]methyl}-6-(trifluoromethyl)pyridin-2-yl]oxy}cyclohexyl)-3-[4-(7H-pyrrolo[2,3-d]pyrimidin-4-yl)-1H-pyrazol-1-yl]azetidin-3-yl}acetonitrile tris(trifluoroacetate)] |  |  | < 10 | ≧10
N#CCC1(n2cc(-c3ncnc4[nH]ccc34)cn2)CN([C@H]2CC[C@@H](Oc3cc(CN4CCC[C@H]4CO)cc(C(F)(F)F)n3)CC2)C1.O=C(O)C(F)(F)F.O=C(O)C(F)(F)F.O=C(O)C(F)(F)F (stereo in doubt) [Example 94, {1-(cis-4-{[4-{[(2S)-2-(hydroxymethyl)pyrrolidin-1-yl]methyl}-6-(trifluoromethyl)pyridin-2-yl]oxy}cyclohexyl)-3-[4-(7H-pyrrolo[2,3-d]pyrimidin-4-yl)-1H-pyrazol-1-yl]azetidin-3-yl}acetonitrile tris(trifluoroacetate)] |  |  | < 10 | ≧10
CN(C)Cc1cc(O[C@H]2CC[C@@H](N3CC(CC#N)(n4cc(-c5ncnc6[nH]ccc56)cn4)C3)CC2)nc(C(F)(F)F)n1 [Example 1, {1-(cis-4-{[6-[(Dimethylamino)methyl]-2-(trifluoromethyl)pyrimidin-4-yl]oxy}cyclohexyl)-3-[4-(7H-pyrrolo[2,3-d]pyrimidin-4-yl)-1H-pyrazol-1-yl]azetidin-3-yl}acetonitrile tetrakis(trifluoroacetate)] | < 10 | ≧10 |  | 
N#CCC1(n2cc(-c3ncnc4[nH]ccc34)cn2)CN([C@H]2CC[C@@H](Oc3cc(CO)nc(C(F)(F)F)n3)CC2)C1 [Example 2, {1-(cis-4-{[6-(Hydroxymethyl)-2-(trifluoromethyl)pyrimidin-4-yl]oxy}cyclohexyl)-3-[4-(7H-pyrrolo[2,3-d]pyrimidin-4-yl)-1H-pyrazol-1-yl]azetidin-3-yl}acetonitrile bis(trifluoroacetate)] | < 10 | ≧10 |  | 
N#CCC1(n2cc(-c3ncnc4[nH]ccc34)cn2)CN([C@H]2CC[C@@H](Oc3cc(CN)nc(C(F)(F)F)n3)CC2)C1 [Example 3, {1-(cis-4-{[6-(Aminomethyl)-2-(trifluoromethyl)pyrimidin-4-yl]oxy}cyclohexyl)-3-[4-(7H-pyrrolo[2,3-d]pyrimidin-4-yl)-1H-pyrazol-1-yl]azetidin-3-yl}acetonitrile tetrakis(trifluoroacetate)] | < 10 | ≧10 |  | 
CNCc1cc(O[C@H]2CC[C@@H](N3CC(CC#N)(n4cc(-c5ncnc6[nH]ccc56)cn4)C3)CC2)nc(C(F)(F)F)n1 [Example 4, {1-(cis-4-{[6-[(Methylamino)methyl]-2-(trifluoromethyl)pyrimidin-4-yl]oxy}cyclohexyl)-3-[4-(7H-pyrrolo[2,3-d]pyrimidin-4-yl)-1H-pyrazol-1-yl]azetidin-3-yl}acetonitrile tris(trifluoroacetate)] | < 10 | ≧10 |  | 
N#CCC1(n2cc(-c3ncnc4[nH]ccc34)cn2)CN([C@H]2CC[C@@H](Oc3cc(CN4CCCCC4)nc(C(F)(F)F)n3)CC2)C1 [Example 30, {1-(cis-4-{[6-(piperidin-1-ylmethyl)-2-(trifluoromethyl)pyrimidin-4-yl]oxy}cyclohexyl)-3-[4-(7H-pyrrolo[2,3-d]pyrimidin-4-yl)-1H-pyrazol-1-yl]azetidin-3-yl}acetonitrile tris(trifluoroacetate)] | < 10 |  |  | 
CC(C)CNCc1cc(O[C@H]2CC[C@@H](N3CC(CC#N)(n4cc(-c5ncnc6[nH]ccc56)cn4)C3)CC2)nc(C(F)(F)F)n1 [Example 35, {1-(cis-4-{[6-[(isobutylamino)methyl]-2-(trifluoromethyl)pyrimidin-4-yl]oxy}cyclohexyl)-3-[4-(7H-pyrrolo[2,3-d]pyrimidin-4-yl)-1H-pyrazol-1-yl]azetidin-3-yl}acetonitrile tris(trifluoroacetate)] | < 10 |  |  | 
CC(C)(CO)NCc1cc(O[C@H]2CC[C@@H](N3CC(CC#N)(n4cc(-c5ncnc6[nH]ccc56)cn4)C3)CC2)nc(C(F)(F)F)c1 [Example 71, {1-(cis-4-{[4-{[(2-hydroxy-1,1-dimethylethyl)amino]methyl}-6-(trifluoromethyl)pyridin-2-yl]oxy}cyclohexyl)-3-[4-(7H-pyrrolo[2,3-d]pyrimidin-4-yl)-1H-pyrazol-1-yl]azetidin-3-yl}acetonitrile tris(trifluoroacetate) (salt)] |  |  | < 10 | 
N#CCC1(n2cc(-c3ncnc4[nH]ccc34)cn2)CN([C@H]2CC[C@@H](Oc3cc(CN4CCC(O)CC4)cc(C(F)(F)F)n3)CC2)C1 [Example 97, {1-(cis-4-{[4-[(4-hydroxypiperidin-1-yl)methyl]-6-(trifluoromethyl)pyridin-2-yl]oxy}cyclohexyl)-3-[4-(7H-pyrrolo[2,3-d]pyrimidin-4-yl)-1H-pyrazol-1-yl]azetidin-3-yl}acetonitrile tris(trifluoroacetate)] |  |  | < 10 | 
